Results on three compounds are retold here after patent US6949383B2 (priority 1998, dated 2005).

Type in all cases: cell-based, Escherichia coli
Assay [1] deals with dnaQ+ strain (wild type).
In assay [2] the test system is Wild-Type.
The test system of assay [3] is Super-Stre.-resisting dnaQ. The assay can be described thus: Minimum growth inhibiting concentration (MIC) of antibiotic substances.
In assay [4] the test system is dnaQ.
For assay [5], the system named is dnaQ49 strain. Briefly: Drug resistance reached by repeated mutagenesis and selection (Example 2).
For assay [6], the system named is Super-Amp-resistant dnaQ.
Assay [7] deals with Super-Nali.-resisting dnaQ. Briefly: Minimum growth inhibiting concentration (MIC) of antibiotic substances.
[8] abbreviates: mutagenesis treatment for 1 time.
Where [9] appears, read: mutagenesis treatments for 2 times.
Where [10] appears, read: mutagenesis treatments for 3 times.
The mark [11] stands for this setting: mutagenesis treatments for 4 times.
Where [12] appears, read: mutagenesis treatments for 5 times.
Where [13] appears, read: mutagenesis treatments for 6 times.
Where [14] appears, read: mutagenesis treatments for 7 times.
Setting [15] is: mutagenesis treatments for 8 times.
Setting [16] is: mutagenesis treatments for 9 times.
[17] abbreviates: mutagenesis treatments for 10 times.
Setting [18] is: mutagenesis treatments for 11 times.
[19] abbreviates: mutagenesis treatments for 12 times.
Where [20] appears, read: mutagenesis treatments for 13 times.
The mark [21] stands for this setting: mutagenesis treatments for 14 times.
[22] abbreviates: mutagenesis treatments for 15 times.
[23] abbreviates: mutagenesis treatments for 16 times.
Where [24] appears, read: mutagenesis treatments for 17 times.
Where [25] appears, read: mutagenesis treatments for 18 times.
Setting [26] is: mutagenesis treatments for 19 times.
Setting [27] is: mutagenesis treatments for 20 times.
The mark [28] stands for this setting: mutagenesis treatments for 21 times.
Where [29] appears, read: mutagenesis treatments for 22 times.
The mark [30] stands for this setting: mutagenesis treatments for 23 times.

Each structure is given as a SMILES string.

`[H]/N=C(/N)N[C@H]1[C@H](O)[C@@H](O)[C@H](O[C@@H]2O[C@@H](C)[C@](O)(C=O)[C@H]2O[C@@H]2O[C@@H](CO)[C@H](O)[C@@H](O)[C@@H]2NC)[C@@H](N/C(N)=N\[H])[C@@H]1O` [Streptomycin]: the “Growth of dnaQ+ strain (wild type) in the presence of drug” value in assay [1] was “*3) dnaQ+ strain (wild type) did not grow in the presence of 10 μg/ml of streptomycin”. For the same compound, the “Minimum growth inhibiting concentration (MIC)” value in assay [2] is listed as 1; in assay [3] it was 2048; in assay [4], 1; in assay [6], 0.5. In addition, the “Concentration of Streptomycin” value in assay [5] (setting [8]) worked out at 1 µg/mL; in assay [5] (setting [9]), 10 µg/mL; in assay [5] (setting [10]), 100 µg/mL; in assay [5] (setting [11]), 1000 µg/mL; in assay [5] (setting [12]) it was 3000 µg/mL; in assay [5] (setting [13]) it was 4000 µg/mL. Besides, the “Concentration of Streptomycin” value in assay [5] (setting [14]) came to 6000 µg/mL; in assay [5] (setting [15]), 8000 µg/mL; in assay [5] (setting [16]), 9000 µg/mL; in assay [5] (setting [17]), 10000 µg/mL; in assay [5] (setting [18]), 12000 µg/mL; in assay [5] (setting [19]), 14000 µg/mL. The “Concentration of Streptomycin” value in assay [5] (setting [20]) came out at 16000 µg/mL; in assay [5] (setting [21]), 17000 µg/mL; in assay [5] (setting [22]), 18000 µg/mL; in assay [5] (setting [23]), 19000 µg/mL; in assay [5] (setting [24]), 20000 µg/mL; in assay [5] (setting [25]), 21000 µg/mL. Also, the “Concentration of Streptomycin” value in assay [5] (setting [26]) is 22000 µg/mL; in assay [5] (setting [27]), 23000 µg/mL; in assay [5] (setting [28]) it was 24000 µg/mL; in assay [5] (setting [29]), 25000 µg/mL; in assay [5] (setting [30]) it was 26000 µg/mL; in assay [5] (mutagenesis treatments for 23 times, listed as streptomycin), 26,000 μg/ml.

In the case of `CO[C@H]1/C=C/O[C@@]2(C)Oc3c(C)c(O)c4c(O)c(c(/C=N/N5CCN(C)CC5)c(O)c4c3C2=O)NC(=O)/C(C)=C\C=C\[C@H](C)[C@H](O)[C@@H](C)[C@@H](O)[C@@H](C)[C@H](OC(C)=O)[C@@H]1C` [Rifampicin], the “Minimum growth inhibiting concentration (MIC)” value in assay [2] is recorded as 4; in assay [4], 8; in assay [6], 2.

For `CCn1cc(C(=O)O)c(=O)c2ccc(C)nc21` [Nalidixic acid], in assay [1], the “Growth of dnaQ+ strain (wild type) in the presence of drug” value is recorded as “*3) dnaQ+ strain (wild type) did not grow in the presence of 10 μg/ml of nalidixic acid”. The “Minimum growth inhibiting concentration (MIC)” value in assay [2] worked out at 2; in assay [4], 1; in assay [6], 0.5; in assay [7], 2048. Moreover, the “Concentration of Nalidixic Acid” value in assay [5] (setting [8]) is 1 µg/mL; in assay [5] (setting [9]), 10 µg/mL; in assay [5] (setting [10]), 100 µg/mL; in assay [5] (setting [11]), 200 µg/mL; in assay [5] (setting [12]), 400 µg/mL; in assay [5] (setting [13]) it was 600 µg/mL. Further, the “Concentration of Nalidixic Acid” value in assay [5] (setting [14]) was found to be 1000 µg/mL; in assay [5] (setting [15]), 1100 µg/mL; in assay [5] (setting [16]), 1200 µg/mL; in assay [5] (setting [17]), 1300 µg/mL; in assay [5] (setting [18]) it was 1400 µg/mL; in assay [5] (setting [19]), 1600 µg/mL. The “Concentration of Nalidixic Acid” value in assay [5] (setting [20]) came to 1800 µg/mL; in assay [5] (setting [21]) it was 2000 µg/mL; in assay [5] (setting [22]) it was 2500 µg/mL; in assay [5] (setting [23]), 3000 µg/mL; in assay [5] (setting [24]), 4000 µg/mL; in assay [5] (setting [25]), 5000 µg/mL. For the same compound, the “Concentration of Nalidixic Acid” value in assay [5] (setting [26]) stood at 6000 µg/mL; in assay [5] (setting [27]), 6200 µg/mL; in assay [5] (setting [28]), 6400 µg/mL; in assay [5] (setting [29]) it was 6600 µg/mL; in assay [5] (setting [30]), 6800 µg/mL; in assay [5] (mutagenesis treatments for 24 times, listed as Nalidixic Acid) it was 7000 µg/mL. Moreover, the “Concentration of Nalidixic Acid” value in assay [5] (mutagenesis treatments for 24 times, listed as nalidixic acid) was 7,000 μg/ml.
